Laboratory results reported in patent US9751885B2, “Cyclopropanamine compound and use thereof” (Takeda Pharmaceutical Company Limited, priority 2012, dated 2017).
Several values for one entry are separate records, joined by “and”; a condition that tells them apart may be missing. Identical values can stand only once. Counter-ions that a name gives are not always drawn. Like-named read-outs stand apart in the source and are kept apart here. Marks after values point to notes of the source that are not given here.

Tests used:
[1] = system: Gad1 H3K4me2 level in rat primary culture neurons; test: Gad1 H3K4 methylation induction activity in rat primary culture neurons (ChIP-qPCR); format: cell-based; details: control without compound = 100%; for activity at 1 µM / activity at 10 µM: Rattus norvegicus, Neuron, 72 h; for activity at 1 µM: read-out: Gad1 H3K4me2 induction activity (%), compound 1 μM, 3 days, rat primary culture neurons; for activity at 10 µM: read-out: Gad1 H3K4me2 induction activity (%), compound 10 μM, 3 days, rat primary culture neurons; for Gad1 H3K4me2 induction activity (%): 3 days, rat primary culture neurons
Experimental: Gad1 H3K4 Methylation Induction Activity in Rat Primary Culture Neurons
Thereafter, the compound was added to final concentrations of 1 or 10 μM, and the cells were further cultured for 3 days. The culture supernatant was aspirated, ice-cold PBS was added, and the cell suspension was collected on ice using CELL SCRAPER (IWAKI). […] (750 μL). Furthermore, 0.3% NP40/cell lysis buffer 1 (750 μL) was added, and the cells were lysed by incubating for 5 min on ice.
Using the DNA obtained by the chromatin immunoprecipitation as a template, quantitative PCR of the Gad1 gene upstream genomic region was performed, and the measurement value was taken as the Gad1 H3K4me2 level. […] The Gad1 H3K4me2 induction by the compound was expressed by the H3K4me2 level when the compound was added, as compared to the H3K4me2 level of the control (without addition of the compound) as 100%.

[2] = system: white blood cell number, red blood cell number, platelet number; test: Evaluation of blood cell number in mouse; format: in vivo; details: oral, Day 2 after administration
Method in brief: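 Male ICR mice dosed orally at 1, 10, 50 or 100 mg/kg (suspension in 0.5% methylcellulose/0.02% citric acid/water); whole blood collected on Day 2. White cell, red cell and platelet counts per unit volume by automated haematology analyser, expressed as % of mean of untreated control group.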

[3] = Evaluation of hippocampal distribution in mouse; format: in vivo; details: male ICR mice, 10 mg/kg oral; for concentration at 1 h: 1 hr after administration
Method in brief: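 Male ICR mice dosed orally at 10 mg/kg as suspension in 0.5% methylcellulose/0.02% citric acid/water. Plasma and hippocampus sampled together at 0.5, 1 or 1.5 h; LC/MS/MS concentrations gave hippocampus/plasma ratio.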

human LSD1(172-833) = human LSD1(172-833) (Homo sapiens (Human), UniProt O60341); test: Measurement of LSD1 inhibitory activity (time-resolved fluorescence, biotin-histone H3 mono methylated K4 peptide); format: biochemical
Method in brief: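 Remaining signal detected by TR-FRET after 60 min with europium anti-histone H3 antibody and streptavidin-XL665 in potassium fluoride/0.1% BSA.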

MAO-B enzyme = MAO-B enzyme (Homo sapiens (Human), UniProt P27338); test: Measurement of MAO-B inhibitory activity (MAO-Glo Assay); details: read-out: MAO-B IC50 value;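 further: luminescence read-out, compound preincubated 10 min with enzyme then reacted 60 min at room temperature, inhibition relative to enzyme reaction without compound, blank lacking enzyme and compound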
MAO-A enzyme = MAO-A enzyme (Homo sapiens (Human), UniProt P21397); test: Measurement of MAO-A inhibitory activity (MAO-Glo Assay); format: biochemical
[4] = hippocampus, read-out: hippocampus concentration (mean)
[5] = plasma, read-out: plasma concentration (mean)
[6] = hippocampus, 0.5 hr after administration, read-out: hippocampus concentration (mean)
[7] = plasma, 0.5 hr after administration, read-out: plasma concentration (mean)

Chain of MAO-B enzyme (P27338 whole entry): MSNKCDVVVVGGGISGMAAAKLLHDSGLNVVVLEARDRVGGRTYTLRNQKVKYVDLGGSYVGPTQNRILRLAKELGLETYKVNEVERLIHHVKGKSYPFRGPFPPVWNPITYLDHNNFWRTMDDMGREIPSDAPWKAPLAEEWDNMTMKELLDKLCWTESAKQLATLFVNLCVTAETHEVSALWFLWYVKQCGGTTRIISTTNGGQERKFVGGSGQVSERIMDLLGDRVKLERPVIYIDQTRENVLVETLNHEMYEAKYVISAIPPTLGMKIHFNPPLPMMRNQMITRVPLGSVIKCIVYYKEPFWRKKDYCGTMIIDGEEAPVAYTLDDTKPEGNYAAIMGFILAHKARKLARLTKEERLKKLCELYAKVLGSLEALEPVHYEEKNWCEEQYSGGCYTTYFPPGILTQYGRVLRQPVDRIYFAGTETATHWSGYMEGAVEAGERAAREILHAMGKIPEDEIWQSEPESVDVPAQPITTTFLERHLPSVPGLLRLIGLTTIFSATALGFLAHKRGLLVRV
Chain of MAO-A enzyme (P21397 whole entry): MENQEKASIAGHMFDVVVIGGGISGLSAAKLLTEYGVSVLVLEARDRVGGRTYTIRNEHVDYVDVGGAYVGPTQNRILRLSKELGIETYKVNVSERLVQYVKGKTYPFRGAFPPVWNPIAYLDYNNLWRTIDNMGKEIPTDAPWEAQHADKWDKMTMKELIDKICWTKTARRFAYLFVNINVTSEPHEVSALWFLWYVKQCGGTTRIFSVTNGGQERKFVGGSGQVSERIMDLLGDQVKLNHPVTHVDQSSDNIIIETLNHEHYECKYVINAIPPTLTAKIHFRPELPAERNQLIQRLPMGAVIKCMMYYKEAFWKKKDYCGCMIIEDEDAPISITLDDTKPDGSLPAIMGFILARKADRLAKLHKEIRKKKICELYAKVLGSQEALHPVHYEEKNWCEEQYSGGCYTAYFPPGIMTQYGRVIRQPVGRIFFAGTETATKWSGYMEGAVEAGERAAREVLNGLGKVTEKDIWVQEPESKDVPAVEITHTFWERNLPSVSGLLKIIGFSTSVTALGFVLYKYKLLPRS

| Compound | activity at 1 µM [1] [%] | activity at 10 µM [1] [%] | platelet number, percentage of compound administration group compared to control group, mean ([2]; 10 mg/kg) | red blood cell number, percentage of compound administration group compared to control group, mean ([2]; 10 mg/kg) | white blood cell number, percentage of compound administration group compared to control group, mean ([2]; 10 mg/kg) | platelet number, percentage of compound administration group compared to control group, mean ([2]; 100 mg/kg) [%] | red blood cell number, percentage of compound administration group compared to control group, mean ([2]; 100 mg/kg) [%] | white blood cell number, percentage of compound administration group compared to control group, mean ([2]; 100 mg/kg) [%] | also measured |
| --- | --- | --- | --- | --- | --- | --- | --- | --- | --- |
| Cn1cc(NC(=O)c2cccc([C@@H]3C[C@H]3NCC3CC3)c2)cn1 (relative stereo) [Example 59, 3-(trans-2-((cyclopropylmethyl)amino)cyclopropyl)-N-(1-methyl-1H-pyrazol-4-yl)benzamide dihydrochloride] | 206 | 161 | 91.9% | 101.1% | 128.1% | 91.2 | 93.3 | 98.8 | – |
| Cc1nnc(NC(=O)c2cccc([C@@H]3C[C@H]3NCC3CC3)c2)s1 (relative stereo) [Example 96, 3-(trans-2-((cyclopropylmethyl)amino)cyclopropyl)-N-(5-methyl-1,3,4-thiadiazol-2-yl)benzamide hydrochloride] | 122 | 151 | – | – | – | 102.4 | 100.7 | 65.5 | platelet number, percentage of compound administration group compared to control group, mean ([2]; 1 mg/kg): 100.9^b %; red blood cell number, percentage of compound administration group compared to control group, mean ([2]; 1 mg/kg): 107.4^b %; white blood cell number, percentage of compound administration group compared to control group, mean ([2]; 1 mg/kg): 116.6^b %; platelet number, percentage of compound administration group compared to control group, mean ([2]; 10 mg/kg, hydrochloride): 102.1% and 101.0^c %; red blood cell number, percentage of compound administration group compared to control group, mean ([2]; 10 mg/kg, hydrochloride): 97.9% and 102.6^c %; white blood cell number, percentage of compound administration group compared to control group, mean ([2]; 10 mg/kg, hydrochloride): 61.5% and 122.4^c %; concentration at 1 h [3, 4]: 602 ng/g; concentration at 1 h [3, 5]: 1060 ng/mL |
| O=C(NC1CC(F)(F)C1)c1cccc([C@@H]2C[C@H]2NCC2CC2)c1 (relative stereo) [Example 99, 3-(trans-2-((cyclopropylmethyl)amino)cyclopropyl)-N-(3,3-difluorocyclobutyl)benzamide hydrochloride] | 174 | 181 | 116.9% | 102.8% | 66.0% | 111.1 | 101.5 | 79.4 | concentration at 1 h [3, 4]: 283 ng/g; concentration at 1 h [3, 5]: 143 ng/mL |
| CCn1cc(NC(=O)c2cccc([C@@H]3C[C@H]3NCC3CC3)c2)cn1 (relative stereo) [Example 101, 3-(trans-2-((cyclopropylmethyl)amino)cyclopropyl)-N-(1-ethyl-1H-pyrazol-4-yl)benzamide dihydrochloride] | 128 | 135 | 107.9% | 99.2% | 121.8% | 108.9 | 98.5 | 100.4 | concentration at 0.5 h [3, 6]: 181 ng/g; concentration at 0.5 h [3, 7]: 907 ng/mL |
| Cc1cc(NC(=O)c2cccc([C@@H]3C[C@H]3NCC3CC3)c2)no1 (relative stereo) [Example 103, 3-(trans-2-((cyclopropylmethyl)amino)cyclopropyl)-N-(5-methyl-1,2-oxazol-3-yl)benzamide hydrochloride] | 139 | 134 | 88.7% | 95.0% | 100.9% | 96.8 | 98.5 | 105.9 | concentration at 1 h [3, 4]: 1030 ng/g; concentration at 1 h [3, 5]: 375 ng/mL |
| Cn1cc(NC(=O)c2cccc([C@@H]3C[C@H]3NCC(C)(C)C)c2)cn1 (relative stereo) [Example 155, 3-(trans-2-((2,2-dimethylpropyl)amino)cyclopropyl)-N-(1-methyl-1H-pyrazol-4-yl)benzamide dihydrochloride] | 104 | 106 | – | – | – | – | – | – | – |
| Cc1nnc(NC(=O)c2cccc([C@@H]3C[C@H]3NC3CCC(F)(F)CC3)c2)s1 (relative stereo) [Example 166, 3-(trans-2-((4,4-difluorocyclohexyl)amino)cyclopropyl)-N-(5-methyl-1,3,4-thiadiazol-2-yl)benzamide dihydrochloride] | 98 | 147 | – | – | – | – | – | – | – |
| Cc1nnc(NC(=O)c2ccc(C)c([C@@H]3C[C@H]3NC3CCOCC3)c2)s1 (relative stereo) [Example 184, 4-methyl-N-(5-methyl-1,3,4-thiadiazol-2-yl)-3-(trans-2-(tetrahydro-2H-pyran-4-ylamino)cyclopropyl)benzamide dihydrochloride] | 136 | 122 | – | – | – | – | – | – | – |
| O=C(NC1CC(F)(F)C1)c1ccc(F)c([C@@H]2C[C@H]2NCC2CC2)c1 (relative stereo) [Example 240, 3-(trans-2-((cyclopropylmethyl)amino)cyclopropyl)-N-(3,3-difluorocyclobutyl)-4-fluorobenzamide hydrochloride] | – | – | 90.7% | 95.5% | 82.3% | 94.7 | 98.7 | 109.4 | IC50 (human LSD1(172-833)): < 0.1 µM; IC50 (MAO-B enzyme): > 10 µM; IC50 (MAO-A enzyme): > 10 µM; concentration at 0.5 h [3, 6]: 329 ng/g; Kp at 0.5 h ([3]; hippocampus/plasma, 0.5 hr after administration, read-out: hippocampus/plasma concentration ratio (mean)): 1.31; concentration at 0.5 h [3, 7]: 247 ng/mL |
| Cc1nnc(NC(=O)c2cccc(C3CC3NCC3CC3)c2)s1 (single isomer, unassigned) [Example 97, 3-(trans-2-((cyclopropylmethyl)amino)cyclopropyl)-N-(5-methyl-1,3,4-thiadiazol-2-yl)benzamide hydrochloride (Optical Isomer, Retention Time Short)] | – | – | 105.2^c % | 105.0^c % | 100.7^c % | – | – | – | Gad1 H3K4me2 induction activity (%) ([1]; compound 1 μM): 100%; Gad1 H3K4me2 induction activity (%) ([1]; compound 10 μM): 111%; platelet number, percentage of compound administration group compared to control group, mean ([2]; 1 mg/kg): 99.4^b %; red blood cell number, percentage of compound administration group compared to control group, mean ([2]; 1 mg/kg): 102.7^b %; white blood cell number, percentage of compound administration group compared to control group, mean ([2]; 1 mg/kg): 114.4^b % |
| Cc1nnc(NC(=O)c2cccc(C3CC3NCC3CC3)c2)s1 (single isomer, unassigned) [Example 98, 3-(trans-2-((cyclopropylmethyl)amino)cyclopropyl)-N-(5-methyl-1,3,4-thiadiazol-2-yl)benzamide hydrochloride (Optical Isomer, Retention Time Long)] | 114 | – | 102.0^c % | 105.6^c % | 106.5^c % | – | – | – | Gad1 H3K4me2 induction activity (%) ([1]; compound 10 μM): 133%; platelet number, percentage of compound administration group compared to control group, mean ([2]; 1 mg/kg): 105.4^b %; red blood cell number, percentage of compound administration group compared to control group, mean ([2]; 1 mg/kg): 103.6^b %; white blood cell number, percentage of compound administration group compared to control group, mean ([2]; 1 mg/kg): 96.5^b % |
